Where two headings read alike, the source gives them in different places.
How the values were obtained:
[1] = target: recombinant HIV-1 protease (Human immunodeficiency virus type 1 group M subtype B, UniProt P04585); conditions: cited from earlier work
HIV-1 = conditions: MT-4 cells; cited from earlier work
MCF-7 cells = test: Cell proliferation assay (tetrazolium salt/MTT method), MCF-7; format: cell-based; conditions: Homo sapiens, read-out: IC50, inhibition of cell proliferation
Method: (§1) Cell culture: The human breast cancer cell lines MCF-7 and MDA-MB-231, obtained from ATCC (Manassas, Va.), were cultivated in Dulbecco's modified Eagle's medium (DMEM) containing penicillin (50 U/ml), streptomycin (50 U/ml), and 10% fetal bovine serum (FBS). Media and supplements were from Invitrogen (Grand Island, N.Y.).
(§2) Cell proliferation assay: Ganodermanontriol, 13, 14, and 15 (isomers) were dissolved in DMSO (Sigma; St. Louis, Mo.) at a concentration of 10 mM and stored at 4° C. Dulbecco's phosphate buffered saline (DPBS) was purchased from Cambrex Bio Science Walkersville, Inc. (Walkersville, Md.). Cell proliferation was determined by the tetrazolium salt method (MTT method), according to the manufacturer's instructions (Promega, Madison, Wis.). Briefly, MCF-7 and MDA-MB-231 cells (2.5×10^3/well) were cultured in a 96-well plate and treated with ganodermanontriol, 13, 14 and 15 (0-100 μg/ml) for 24, 48, and 72 hrs. At the end of the incubation period, the cells were harvested and absorption was determined with an ELISA plate reader at 570 nm. Data points represent mean±SD in triplicate determinations repeated at least twice. IC50 values were determined by using SigmaPlot (Systat Software Inc, San Jose, Calif.).

MDA-MB-231 cells = test: Cell proliferation assay (tetrazolium salt/MTT method), MDA-MB-231; format: cell-based; conditions: Homo sapiens, read-out: IC50, inhibition of cell proliferation
Method: as §1, §2

mammalian cells = conditions: potentially through inhibition of lanosterol 14α demethylase; cited from earlier work
[2] = test system: classical pathway (CP) of the complement system; conditions: read-out: IC(50), anticomplement activity; cited from earlier work
human colon cancer cells = conditions: in vitro; cited from earlier work
[3] = test system: xenograft model of colon cancer; conditions: cited from earlier work
[4] = MDA-MB-231 cells, 72 h, 0-100 μM

Compound	inhibitory activity against recombinant HIV-1 protease [1]	IC50 (MCF-7 cells; MCF7 cells, 72 h, 0-100 μM) [µM]	IC50 (MDA-MB-231 cells; [4]) [µM]	further results
C/C(=C\CC[C@@H](C)[C@H]1CC(=O)[C@@]2(C)C3=C(C(=O)C[C@]12C)[C@@]1(C)CC[C@H](O)C(C)(C)[C@@H]1C[C@@H]3O)C(=O)O [ganoderic acid β]	significant inhibitory activity	–	–	–
C[C@H](CCC=C(CO)CO)[C@H]1CC[C@@]2(C)C3=CC[C@H]4C(C)(C)C(=O)CC[C@]4(C)C3=CC[C@]12C [ganoderiol F, reference compound]	–	–	–	inhibition of HIV-1-induced cytopathic effect (HIV-1): inhibited
C[C@H](CC[C@@H](O)[C@](C)(O)CO)[C@H]1CC[C@@]2(C)C3=CCC4C(C)(C)C(=O)CC[C@]4(C)C3=CC[C@]12C (stereo partly drawn) [compound 15, (10S,13R,14R,17R)-4,4,10,13,14-Pentamethyl-17-((2R,5R,6R)-5,6,7-trihydroxy-6-methylheptan-2-yl)-4,5,6,10,12,13,14,15,16,17-decahydro-1H-cyclopenta[a]phenanthren-3(2H)-one]	–	24.1	11.3	–
C/C(=C\CC[C@@H](C)[C@H]1CC[C@@]2(C)C3=CCC4C(C)(C)C(=O)CC[C@]4(C)C3=CC[C@]12C)CO (stereo partly drawn) [ganoderol A, (10S,13R,14R,17R)-17-((R,E)-7-Hydroxy-6-methylhept-5-en-2-yl)-4,4,10,13,14-pentamethyl-4,5,6,10,12,13,14,15,16,17-decahydro-1H-cyclopenta[a]phenanthren-3(2H)-one]	–	–	–	melting point: 75 to 80 °C; hypocholestemic activity (mammalian cells): significant hypocholestemic activity
C[C@H](CC[C@H](O)[C@](C)(O)CO)[C@H]1CC[C@@]2(C)C3=CCC4C(C)(C)C(=O)CC[C@]4(C)C3=CC[C@]12C (stereo partly drawn) [compound 1, (10S,13R,14R,17R)-4,4,10,13,14-Pentamethyl-17-((2R,5S,6R)-5,6,7-trihydroxy-6-methylheptan-2-yl)-4,5,6,10,12,13,14,15,16,17-decahydro-1H-cyclopenta[a]phenanthren-3(2H)-one]	significant inhibitory activity	–	–	IC50 (MCF-7 cells; MCF7, 72 h): 5.8 µM; IC50 (MDA-MB-231 cells; MDA-MB-231, 72 h): 9.7 µM; IC50 [2]: 17.2 µM; inhibition of HIV-1-induced cytopathic effect (HIV-1): inhibited; proliferation of human colon cancer cells (human colon cancer cells): suppressed proliferation; tumor growth [3]: inhibited tumor growth
C[C@H](CC[C@H](O)[C@@](C)(O)CO)[C@H]1CC[C@@]2(C)C3=CCC4C(C)(C)C(=O)CC[C@]4(C)C3=CC[C@]12C (stereo partly drawn) [compound 14, (10S,13R,14R,17R)-4,4,10,13,14-Pentamethyl-17-((2R,5S,6S)-5,6,7-trihydroxy-6-methylheptan-2-yl)-4,5,6,10,12,13,14,15,16,17-decahydro-1H-cyclopenta[a]phenanthren-3(2H)-one]	–	16.3	36.7	–
ganodermanodiol	significant inhibitory activity	–	–	–
C[C@H](CC[C@@H](O)[C@@](C)(O)CO)[C@H]1CC[C@@]2(C)C3=CCC4C(C)(C)C(=O)CC[C@]4(C)C3=CC[C@]12C (stereo partly drawn) [compound 13, (10S,13R,14R,17R)-4,4,10,13,14-Pentamethyl-17-((2R,5R,6S)-5,6,7-trihydroxy-6-methylheptan-2-yl)-4,5,6,10,12,13,14,15,16,17-decahydro-1H-cyclopenta[a]phenanthren-3(2H)-one]	–	24.1	33.8	–

Reference: patent publication US9376462B2, “Process for preparing delta-7,9(11) steroids from Ganoderma lucidum and analogs thereof” (Indiana University Research and Technology Corporation, priority 2010, dated 2016)
